Laboratory results taken from patent US20050107606A1 (published 2005).

melting point: 82 to 84 °C
SMILES: CCCn1cncc1CSc1ccc(NC(=O)C(F)(F)F)cc1
